{"source": "patent US20070155663A1", "about": "“Use of chemokine receptor agonists for stem cell transplantation” (priority 2003, published 2007)", "system": "FDCP-Mix cells", "assay": "in vitro chemotactic assay of FDCP-Mix cells in 96-transwell chambers", "type": "cell-based", "details": "migration for 14 h", "protocol": "Figure: FDCP-Mix cells were subjected to in vitro chemotactic assays. Chemotaxis was assessed in 96-transwell chambers (Neuroprobe, Cabin John, MD) by using polyvinylpyrrolidone-free polycarbonate membranes (Nucleopore, Neuroprobe) with 5-μm pores. Four hundred microliters of IMDM medium was added to the bottom of the well, and was supplemented with varying concentrations of SDF-1α or MIP-3α (R&D Systems). 100 μl of IMDM medium containing 50.000 FDCP-Mix cells were added to the upper wells of the chemotaxis chamber. Additionally 100 μl of medium either with no supplement or supplemented with MIP-3α was added to the upper well. […] Simultaneously FDCP-Mix progenitor cells were coincubated with MIP-3α in concentrations of 10 to 1000 ng/ml medium."}
{"substance": "MIP-3α: Macrophage Inflammatory Protein - 3α, CCR6 ligand (R&D Systems)", "values": [{"measurement": "Chemotactic migration of FDCP-Mix progenitor cells", "setting": "MIP-3a in the bottom well, 10 to 1000 ng/ml medium", "result": "does not induce chemotactic migration"}, {"measurement": "Sensitivity of FDCP-Mix cells to migrate to SDF-1α", "setting": "SDF-1a 10 ng/ml in bottom well, cells coincubated with agonist (MIP-3α 10 to 1000 ng/ml medium)", "result": "does increase the sensitivity"}]}
